Where a name gives a salt, the structure may show the parent alone.
Tests used:
[1] = Stability and uniformity of compound A suspension in 0.5% methyl cellulose; assay type: physicochemical; conditions: 1 mg/mL suspension in 0.5% MC; 7 days under refrigeration, protected from light, and a further 24 hours at ambient temperature exposed to indoor lighting
Procedure: Compound A was weighed out and suspended in a 0.5 w/v % methyl cellulose 400 cP solution (Wako Pure Chemical Industries, Ltd., hereinafter referred to as “0.5% MC”), using a mortar and pestle, to obtain a 1 mg/mL suspension. The suspension was used within 7 days of preparation.
(§1) Compound A was weighed out and suspended in a 0.5 w/v % methyl cellulose 400 cP solution (Wako Pure Chemical Industries, Ltd., hereinafter referred to as “0.5% MC”), using a mortar and pestle, to obtain a 1 mg/mL (10 mg/kg) suspension. The suspension was used within 7 days of preparation.

TMD8 (ABC-DLBCL) cells [2] = assay: Antitumor activity study of compound A in combination with GA101/RTX in TMD8 xenograft model (Example 2); assay type: in vivo, SCID mice; conditions: for Tumor growth inhibition (TGI): vs vehicle group, GA101 3 mg/kg i.v. Q7Dx4, RTX 3 mg/kg i.v. Q7Dx4, compound A 10 mg/kg p.o. twice daily
Procedure: Mice were xenografted on DO. […] Mice received one IV injection of Rituximab (at 3 mg/kg) or one IV injection of GA101 (at 3 mg/kg) once a week (D14 (Day 0), 21 (Day 7), 28 (Day 14) and 35 (Day 21): Q7D×4). Tumor volumes were monitored and recorded twice a week.
Compound A was per os (PO) administered to mice twice daily by oral gavage via a disposable oral feeding needle (Fuchigami Kikai Co.) at 10 ml/kg. GA101/Rituximab were intravenously (IV) injected at 10 ml/kg in the caudal vein of mice. For all treatments, the administration volumes were adapted according to the closest measure of individual body weight for each mouse. The compound A b.i.d. group and the vehicle group received compound A and 0.5% MC, respectively, in the morning and afternoon at an interval of 8 h or more.
(§2) Female C.B-17/lcr-SCID/SCIDJcl mice (Clea Japan Inc., age at initiation of experiment: 6 weeks; hereinafter referred to as “Scid mice”) were used. The mice were kept in metal mouse cages, 3 to 5 to a cage, and underwent about 1 week acclimation period prior to being subjected to the experiment. While at our facility, the animals were allowed solid feed, CRF-1 (Oriental Yeast Co., Ltd.) and tap water (from an automatic dispenser) ad libitum. Excrement was processed with an automated cleaning system. The general condition of the animals was observed upon receipt and at the completion of acclimation. Animals having no problems with general condition were used in the experiment.
(§3) TMD8 was established from cells of a patient with diffuse large B-cell lymphoma (Tohda S et al., Leuk Res., 2006, 30: 1385-90). RPMI Medium 1640 (Invitrogen Corporation, hereinafter referred to as “RPMI”) containing 10 vol % inactivated FBS and 1 vol % Penicillin-Streptomycin liquid (Invitrogen Corporation) was prepared and used as medium. The medium was stored at 5° C. (allowable range: 1° C. to 9° C.). The cell suspension of 4×106 to 2.0×10^7 cells per dish was inoculated in a 150 mm dish containing the medium. The plates were incubated at 37° C., 5% CO2, 95% air.
(§4) At Day 0, the pellet was suspended in RPMI previously cooled on ice to obtain a 2×10^8 cells/mL cell suspension. The RPMI cell suspension and equal volume of BD Matrigel GFR (BD Biosciences) were combined to prepare a 1×10^8 cells/mL cell suspension. This was used as the cell suspension for implantation. Then, 0.1 mL of cell suspension was subcutaneously injected in the right flank of the mice under pentobarbital anesthesia, using a 25-gauge needle (Terumo Corporation).
(§5) The long axis and short axis of the tumors were measured with electronic calipers (Mitutoyo Corporation) every 2 or 4 days from TMD8 implantation to the final assessment day.
(§6) The primary endpoint was tumor volume on the final assessment day. In addition, the tumor growth inhibition rate (TGI, %) in the treatment groups versus the vehicle group was calculated. Temporal change in tumor volume and body weight from Day 0 were used as secondary endpoints. Tumor volume was calculated with the following formula. Tumor volume=Long axis of tumor×(short axis of tumor)2×0.5
The experiment in Example 2 was performed according to the method described in Example 1 except for the following “substance vehicle” and “treatment schedule”.
as §1
The stock solutions of both GA101 (25 mg/mL) and Rituximab (10 mg/mL) were kept at 4° C. Before administration to mice, the stock solutions were diluted in NaCl 0.9% at 0.3 mg/mL (3 mg/kg) for this study.
When the mean tumor volume reached 400 to 450 mm^3 mice were randomized in groups of 6 according to their individual tumor volumes and treatment was initiated.

TMD8 (ABC-DLBCL) cells [3] = assay: Antitumor activity study of compound A or compound B (in diet) in combination with RTX in TMD8 xenograft model (Example 3); assay type: in vivo, SCID mice; conditions: for Tumor growth inhibition (TGI): vs vehicle group, RTX 3 mg/kg i.v. Q7Dx3, compound A 0.0037% in diet (6 mg/kg/day), compound B 0.012% in diet (20 mg/kg/day)
Procedure: Mice were xenografted on DO. […] Mice received one IV injection of Rituximab (at 3 mg/kg) once a week (D14 (Day 0), 21 (Day 7) and 28 (Day 14): Q7D×3). Tumor volumes were monitored and recorded at Day 3, Day 7, Day 11, Day 14, Day 18 and Day 21.
as §2, §3, §4, §5, §6
The experiment in Example 3 was performed according to the method described in Example 1 except for the following “substance vehicle”, “route of drug administration” and “treatment schedule”
The comparative substance, ibrutinib (hereinafter referred to as “compound B”), was stored in sealed containers at ambient temperature, protected from light.
The dose of compound A or compound B corresponds to a daily intake of 6 or 20 mg/kg of body weight.
Treatment groups: Mice fed the same diet containing compound A or compound B after randomization. Rituximab was administered intravenously at a 3 mg/kg once weekly.
Tumor diameter was measured and tumor volume was calculated every 3 or 4 days after group assignment.

TMD8 (ABC-DLBCL) cells [4] = assay: Antitumor efficacy study of compound A in combination with GA101 in SCID mice subcutaneously xenografted with TMD8 cells (Example 1); assay type: in vivo; conditions: GA101 1 and 3 mg/kg i.v. Q7Dx4
Procedure: Mice were xenografted on DO. Mice received one PO administration of vehicle and compound A at 10 mg/kg twice every day (Q0.5D×24) alone or in combination with one IV injection of GA101 at 1 and 3 mg/kg once a week (Q7D×4). Mice received one IV injection of Rituximab (at 3 mg/kg) or one IV injection of GA101 (at 1 and 3 mg/kg) once a week (D14 (Day 0), 21 (Day 7), 28 (Day 14) and D35 (Day 21): Q7D×4). Tumor volumes were monitored and recorded twice a week.
Antitumor efficacy study of BTK inhibitor in combination with anti-CD20 Abs in SCID mice subcutaneously xenografted with TMD8 (ABC-DLBCL) cells
The test substance, 6-amino-9-[(3R)-1-(2-butynoyl)-3-pyrrolidinyl]-7-(4-phenoxyphenyl)-7,9-dihydro-8H-purin-8-one hydrochloride (hereinafter referred to as “compound A”), was stored in sealed containers at ambient temperature, protected from light.
Compound A was weighed out and suspended in a 0.5 w/v % methyl cellulose 400 cP solution (Wako Pure Chemical Industries, Ltd., hereinafter referred to as “0.5% MC”), using a mortar and pestle, to obtain a 1 mg/mL suspension. The suspension was used within 7 days of preparation. […]
TMD8 was established from cells of a patient with diffuse large B-cell lymphoma (Tohda S et al., Leuk Res., 2006, 30: 1385-90). […] Cells were counted in a hemocytometer and their viability was at least 90% the day of cells injection. […]

Row | Compound | Stability and uniformity of suspension [1] | Tumor growth inhibition (TGI) (TMD8 (ABC-DLBCL) cells [2]; day 0) [%] | Tumor growth inhibition (TGI) (TMD8 (ABC-DLBCL) cells [2]; day 4) [%] | Tumor growth inhibition (TGI) (TMD8 (ABC-DLBCL) cells [2]; day 7) [%] | Tumor growth inhibition (TGI) (TMD8 (ABC-DLBCL) cells [2]; day 11) [%] | Tumor growth inhibition (TGI) (TMD8 (ABC-DLBCL) cells [2]; day 14) [%] | Tumor growth inhibition (TGI) (TMD8 (ABC-DLBCL) cells [2]; day 18) [%] | Tumor growth inhibition (TGI) (TMD8 (ABC-DLBCL) cells [2]; day 21) [%] | Statistical significance observed after Day (TMD8 (ABC-DLBCL) cells [2]; monotherapy, GA101 or RTX 3 mg/kg i.v., compound A 10 mg/kg p.o.) [days] | Antitumor activity compared with the compound B arm (TMD8 (ABC-DLBCL) cells [3]; compound A 0.0037% vs compound B 0.012% in diet, alone or with RTX 3 mg/kg) | Tumor growth inhibition (TGI) (TMD8 (ABC-DLBCL) cells [3]; day 0) [%] | Tumor growth inhibition (TGI) (TMD8 (ABC-DLBCL) cells [3]; day 3) [%] | Tumor growth inhibition (TGI) (TMD8 (ABC-DLBCL) cells [3]; day 7) [%] | Tumor growth inhibition (TGI) (TMD8 (ABC-DLBCL) cells [3]; day 11) [%] | Tumor growth inhibition (TGI) (TMD8 (ABC-DLBCL) cells [3]; day 14) [%] | Tumor growth inhibition (TGI) (TMD8 (ABC-DLBCL) cells [3]; day 18) [%] | Tumor growth inhibition (TGI) (TMD8 (ABC-DLBCL) cells [3]; day 21) [%] | Antitumoral effect (tumour volume curves, FIGS. 1A-1B) (TMD8 (ABC-DLBCL) cells [4])
1 | CC#CC(=O)N1CC[C@@H](n2c(=O)n(-c3ccc(Oc4ccccc4)cc3)c3c(N)ncnc32)C1 [compound A, 6-amino-9-[(3R)-1-(2-butynoyl)-3-pyrrolidinyl]-7-(4-phenoxyphenyl)-7,9-dihydro-8H-purin-8-one hydrochloride] | stable and uniform | 0.0 | 13.7 | 17.6 | 34.0 | 45.8 | 46.4 | 62.6 | > 11 | comparable to compound B (0.012%) | 0.0 | 12.7 | 42.8 | 47.55 | 51.1 | 61.0 | 56.1 | –
2 | GA101: obinutuzumab, afucosylated glyco-engineered humanized B-Ly1 type II anti-CD20 antibody | – | 1.7 | 30.9 | 45.0 | 53.3 | 63.3 | 72.2 | 77.9 | – | – | – | – | – | – | – | – | – | showed an antitumoral effect

Reference: US12186392B2, “Combination therapy of an anti CD20 antibody with a BTK inhibitor” (Ono Pharmaceutical Co., Ltd., priority 2013, dated 2025)
